Laboratory results published in the supplement of paper PMC8617591.

Key:
[1] = tested on: Mycobacterium tuberculosis Erdman (autoluminescent); experiment: Einf, fitted maximum growth inhibition (fraction); higher = stronger maximal inhibition
Procedure: (§1)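 DiaMOND dose responses (10 doses, 1.5- or 2-fold spacing, equipotent around IC90) of autoluminescent M. tuberculosis Erdman in 8 in vitro models. Read-out is OD600, or luminescence for the intracellular (J774) and dormancy models, background-subtracted and normalised to untreated wells. A 3-parameter Hill fit gives Einf and AUC25 (area to IC25 normalised by IC25); GRinf comes from a Hill fit of the Hafner normalised growth rate. Biological replicates passing QC are averaged. Single drugs only.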

[2] = tested on: Mycobacterium tuberculosis Erdman (autoluminescent); experiment: AUC25, normalised area under dose response up to IC25 (fraction (0-1)); higher = more potent at low dose
Procedure: as §1

[3] = tested on: Mycobacterium tuberculosis Erdman (autoluminescent); experiment: GRinf, maximum normalised growth rate inhibition (unitless (-1 to 1)); higher = less effect (negative = killing)
Procedure: as §1

COc1nc2ccc(Br)cc2cc1[C@@H](c1ccccc1)[C@@](O)(CCN(C)C)c1cccc2ccccc12 [bedaquiline]
Settings | AUC25, [2] | Einf, [1] | GRinf, [3]
in vitro model: acidic pH 5.7, time point: constant (~7 days, model-specific) | 0.109 | 0.921 | -0.617
in vitro model: acidic pH 5.7, time point: terminal (~4-5 doublings, model-specific) | 0.0902 | 0.988 | -0.475
in vitro model: intracellular J774, time point: constant = terminal | – | 0.979 | -0.319

Settings | AUC25, [2] | Einf, [1] | GRinf, [3]
in vitro model: butyrate, time point: constant (~7 days, model-specific) | 0.0777 | 0.964 | -0.167
in vitro model: butyrate, time point: terminal (~4-5 doublings, model-specific) | 0.0609 | 0.984 | -0.138
in vitro model: cholesterol 0.05 mM, time point: constant (~7 days, model-specific) | 0.0895 | 0.766 | -0.328
in vitro model: cholesterol 0.05 mM, time point: terminal (~4-5 doublings, model-specific) | 0.0718 | 0.946 | -0.335
in vitro model: cholesterol-high 0.2 mM, time point: constant (~7 days, model-specific) | 0.0559 | 0.975 | -0.613
in vitro model: cholesterol-high 0.2 mM, time point: terminal (~4-5 doublings, model-specific) | 0.0462 | 1 | -0.647
in vitro model: dormancy (butyrate + nitrate, low O2), time point: constant (~7 days, model-specific) | 0.0618 | 0.908 | 0.184
in vitro model: dormancy (butyrate + nitrate, low O2), time point: terminal (~4-5 doublings, model-specific) | 0.0799 | 0.979 | -0.0503
in vitro model: standard 7H9 glycerol, time point: constant = terminal | 0.0758 | 0.97 | -0.118
in vitro model: valerate, time point: constant (~7 days, model-specific) | 0.0789 | 0.92 | -0.142
in vitro model: valerate, time point: terminal (~4-5 doublings, model-specific) | 0.0549 | 0.963 | -0.0955

NNC(=O)c1ccncc1 [isoniazid]
Settings | AUC25, [2] | Einf, [1] | GRinf, [3]
in vitro model: acidic pH 5.7, time point: constant (~7 days, model-specific) | 0.0571 | 0.674 | 0.0942
in vitro model: acidic pH 5.7, time point: terminal (~4-5 doublings, model-specific) | 0.0392 | 0.933 | -0.101
in vitro model: intracellular J774, time point: constant = terminal | – | 0.932 | -0.113

Settings | AUC25, [2] | Einf, [1] | GRinf, [3]
in vitro model: butyrate, time point: constant (~7 days, model-specific) | 0.0446 | 0.937 | -0.0682
in vitro model: butyrate, time point: terminal (~4-5 doublings, model-specific) | 0.0452 | 0.981 | -0.137
in vitro model: cholesterol 0.05 mM, time point: constant (~7 days, model-specific) | 0.101 | 0.738 | -0.177
in vitro model: cholesterol 0.05 mM, time point: terminal (~4-5 doublings, model-specific) | 0.0895 | 0.915 | -0.208
in vitro model: cholesterol-high 0.2 mM, time point: constant (~7 days, model-specific) | 0.0813 | 0.905 | -0.466
in vitro model: cholesterol-high 0.2 mM, time point: terminal (~4-5 doublings, model-specific) | 0.0704 | 0.994 | -0.567
in vitro model: dormancy (butyrate + nitrate, low O2), time point: constant (~7 days, model-specific) | 0.0691 | 0.903 | 0.286
in vitro model: dormancy (butyrate + nitrate, low O2), time point: terminal (~4-5 doublings, model-specific) | 0.0601 | 0.982 | -0.0707
in vitro model: standard 7H9 glycerol, time point: constant = terminal | 0.0311 | 0.882 | 0.145
in vitro model: valerate, time point: constant (~7 days, model-specific) | 0.0515 | 0.881 | 0.0138
in vitro model: valerate, time point: terminal (~4-5 doublings, model-specific) | 0.0365 | 0.932 | 0.0316

NC(=O)c1cnccn1 [pyrazinamide]
Settings | AUC25, [2] | Einf, [1] | GRinf, [3]
in vitro model: acidic pH 5.7, time point: constant (~7 days, model-specific) | 0.12 | 0.74 | -0.0384
in vitro model: acidic pH 5.7, time point: terminal (~4-5 doublings, model-specific) | 0.124 | 0.881 | 0.0463
in vitro model: intracellular J774, time point: constant = terminal | – | 0.977 | -0.393

Settings | AUC25, [2] | Einf, [1] | GRinf, [3]
in vitro model: butyrate, time point: constant (~7 days, model-specific) | 0.135 | 0.921 | -1
in vitro model: butyrate, time point: terminal (~4-5 doublings, model-specific) | 0.098 | 0.954 | -1
in vitro model: cholesterol 0.05 mM, time point: constant (~7 days, model-specific) | 0.154 | 0.394 | 0.111
in vitro model: cholesterol 0.05 mM, time point: terminal (~4-5 doublings, model-specific) | 0.142 | 0.803 | 0.0744
in vitro model: cholesterol-high 0.2 mM, time point: constant (~7 days, model-specific) | 0.0952 | 0.765 | -0.0736
in vitro model: cholesterol-high 0.2 mM, time point: terminal (~4-5 doublings, model-specific) | 0.0753 | 0.959 | -0.64
in vitro model: dormancy (butyrate + nitrate, low O2), time point: constant (~7 days, model-specific) | 0.0813 | 0.939 | -0.934
in vitro model: standard 7H9 glycerol, time point: constant = terminal | 0.104 | 0.291 | 0.582
in vitro model: valerate, time point: constant (~7 days, model-specific) | 0.0917 | 0.8 | -0.597
in vitro model: valerate, time point: terminal (~4-5 doublings, model-specific) | 0.0645 | 0.916 | -0.749

CC(=O)NC[C@H]1CN(c2ccc(N3CCOCC3)c(F)c2)C(=O)O1 [linezolid]
Settings | AUC25, [2] | Einf, [1] | GRinf, [3]
in vitro model: acidic pH 5.7, time point: constant (~7 days, model-specific) | 0.105 | 0.813 | -0.255
in vitro model: acidic pH 5.7, time point: terminal (~4-5 doublings, model-specific) | 0.086 | 0.966 | -0.214
in vitro model: intracellular J774, time point: constant = terminal | – | 0.947 | -0.297

Settings | AUC25, [2] | Einf, [1] | GRinf, [3]
in vitro model: butyrate, time point: constant (~7 days, model-specific) | 0.0921 | 0.894 | 0.0641
in vitro model: butyrate, time point: terminal (~4-5 doublings, model-specific) | 0.0673 | 0.941 | 0.0625
in vitro model: cholesterol 0.05 mM, time point: constant (~7 days, model-specific) | 0.152 | 0.692 | -0.0397
in vitro model: cholesterol 0.05 mM, time point: terminal (~4-5 doublings, model-specific) | 0.152 | 0.927 | -0.195
in vitro model: cholesterol-high 0.2 mM, time point: constant (~7 days, model-specific) | 0.119 | 0.967 | -0.633
in vitro model: cholesterol-high 0.2 mM, time point: terminal (~4-5 doublings, model-specific) | 0.117 | 1 | -0.803
in vitro model: dormancy (butyrate + nitrate, low O2), time point: constant (~7 days, model-specific) | 0.0427 | 0.907 | 0.164
in vitro model: dormancy (butyrate + nitrate, low O2), time point: terminal (~4-5 doublings, model-specific) | 0.0425 | 0.989 | -0.0469
in vitro model: standard 7H9 glycerol, time point: constant = terminal | 0.0679 | 0.904 | 0.0704
in vitro model: valerate, time point: constant (~7 days, model-specific) | 0.106 | 0.912 | -0.0706
in vitro model: valerate, time point: terminal (~4-5 doublings, model-specific) | 0.0701 | 0.948 | -0.0311

CO[C@H]1/C=C/O[C@@]2(C)Oc3c(C)c(O)c4c(O)c(c(/C=N/N5CCN(C)CC5)c(O)c4c3C2=O)NC(=O)/C(C)=C\C=C\[C@H](C)[C@H](O)[C@@H](C)[C@@H](O)[C@@H](C)[C@H](OC(C)=O)[C@@H]1C [rifampicin]
Settings | AUC25, [2] | Einf, [1] | GRinf, [3]
in vitro model: acidic pH 5.7, time point: constant (~7 days, model-specific) | 0.0889 | 0.838 | -0.0959
in vitro model: acidic pH 5.7, time point: terminal (~4-5 doublings, model-specific) | 0.0838 | 0.98 | -0.261
in vitro model: intracellular J774, time point: constant = terminal | – | 0.971 | -0.261

Settings | AUC25, [2] | Einf, [1] | GRinf, [3]
in vitro model: butyrate, time point: constant (~7 days, model-specific) | 0.112 | 0.892 | 0.0824
in vitro model: butyrate, time point: terminal (~4-5 doublings, model-specific) | 0.1 | 0.956 | 0.0686
in vitro model: cholesterol 0.05 mM, time point: constant (~7 days, model-specific) | 0.093 | 0.503 | 0.296
in vitro model: cholesterol 0.05 mM, time point: terminal (~4-5 doublings, model-specific) | 0.0796 | 0.855 | -0.0493
in vitro model: cholesterol-high 0.2 mM, time point: constant (~7 days, model-specific) | 0.0905 | 0.927 | -0.416
in vitro model: cholesterol-high 0.2 mM, time point: terminal (~4-5 doublings, model-specific) | 0.0772 | 0.999 | -0.773
in vitro model: dormancy (butyrate + nitrate, low O2), time point: constant (~7 days, model-specific) | 0.0684 | 0.901 | 0.176
in vitro model: dormancy (butyrate + nitrate, low O2), time point: terminal (~4-5 doublings, model-specific) | 0.0437 | 0.978 | -0.0601
in vitro model: standard 7H9 glycerol, time point: constant = terminal | 0.0814 | 0.877 | 0.161
in vitro model: valerate, time point: constant (~7 days, model-specific) | 0.0576 | 0.86 | 0.0731
in vitro model: valerate, time point: terminal (~4-5 doublings, model-specific) | 0.0385 | 0.943 | 0.0202
